Patent US20220378706A1, “PHARMACEUTICAL COMPOSITION COMPRISING PDE9 INHIBITOR” (Eisai R&D Management Co., Ltd., priority 2017, published 2022)
Read-outs that look alike come from different tables or passages of the source.

Assay: Single dose clinical study: plasma Compound A pharmacokinetics
Assay type: in vivo, human
Procedure: This was a single center, single dose, randomized, double blind, placebo controlled study in healthy subjects. It consisted of 4 parts: Parts A, B, C, and D. Each of the four study parts had 2 phases: Prerandomization Phase and Randomization Phase. The Prerandomization Phase lasted up to 30 days and consisted of a Screening Period and a Baseline Period, during which each subject's study eligibility was determined and baseline assessments were performed.
In Part A, there were 8 sequential cohorts of healthy adult subjects (18-50 years of age). Subjects were randomly assigned to Compound A or placebo in a ratio of 6:2, respectively. Subjects in the Compound A cohorts were treated with single ascending doses of 10, 25, 50, 100, 200, 400, 800, or 1200 mg.
In Part B, there were 4 cohorts of healthy adult subjects (18-50 years of age). There were 8 subjects in Cohort 1, with 6 subjects randomly assigned to receive single doses of Compound A (400 mg) and 2 subjects randomly assigned to receive placebo. There were 7 subjects in Cohort 2 and Cohort 3, each with 6 subjects randomly assigned to receive single doses of Compound A (100 and 200 mg, respectively) and 1 subject randomly assigned to receive placebo. The dose of 100 mg selected in Cohort 2 was based on preliminary analysis of Cohort 1 data; this dose was predicted from PK/PD modeling to achieve a sustained CSF cGMP increase from baseline of approximately 200% when administered to steady state, and thereby provided a potentially therapeutic dose for further evaluation in future studies. There were 7 subjects in Cohort 4, with 6 subjects randomly assigned to receive a single dose of Compound A (50 mg [n=3] or 75 mg [n=3]) and 1 subject randomly assigned to receive placebo. The doses for Cohorts 3 and 4 were selected based on PK/PD modeling of the data in Cohorts 1 and 2.
Subjects in Cohort 2 who had received Compound A 100 mg or placebo under fasted conditions (1st Treatment Period) also participated in an evaluation of food effect on the PK of Compound A (2nd Treatment Period). After a washout period of at least 13 days (or 5 half-lives of Compound A, whichever was longer), subjects were admitted to the clinic for baseline assessments (2nd Baseline Period) and then received a single dose of the same treatment (Compound A 100 mg or placebo) after consuming a high fat and high calorie meal over 30 minutes. Blood PK samples were collected at prespecified time points. Safety evaluations were also assessed. CSF was not collected for PD evaluation during the 2nd Treatment Period. A Follow Up Visit occurred on Day 10 of Treatment Period 2.
In Part C, there was 1 cohort of 8 healthy elderly subjects (65 to 85 years of age) randomly assigned to receive a single dose of Compound A 100 mg or placebo in a ratio of 6:2, respectively.
In Part D, 3 cohorts of healthy adult Japanese subjects were randomized in parallel. There were 7 subjects in each cohort and subjects were randomly assigned to receive single doses of Compound A (25, 100, or 400 mg) or placebo in a ratio of 6:1, respectively.
Blood samples for determination of plasma Compound A concentrations were collected from predose to 216 hours postdose. On Day 1, blood PK samples were collected at predose and postdose 0.5 (30 minutes), 1, 1.5, 2, 3, 4, 5, 6, 8, 12, and 18 hours. Thereafter, samples were collected on Day 2 (24 and 36 hours postdose), Day 3 (48 hours postdose), Day 4 (72 hours postdose), Day 5 (96 hours postdose), Day 6 (120 hours postdose), Day 7 (144 hours postdose), and Day 10 (216 hours postdose).
Blood samples for determination of plasma Compound A concentrations were collected from predose to 216 hours postdose. For all cohorts, blood PK samples were collected on Day 1 at predose and postdose at 0.5 (30 minutes), 1, 1.5, 2, 3, 4, 5, 6, 8, 10, 12, and 18 hours. […]

[1] = 100 mg after high-fat and high-calorie meal
[2] = 400 mg, with weight as a covariate
[3] = Elderly:Younger Adults, single oral 100 mg
[4] = Japanese:non-Japanese, 25 mg, with weight as covariate
[5] = Japanese:non-Japanese, 25 mg, without weight as covariate
[6] = Japanese:non-Japanese, 100 mg, with weight as covariate
[7] = Japanese:non-Japanese, 100 mg, without weight as covariate
[8] = Japanese:non-Japanese, 400 mg, with weight as covariate
[9] = Japanese:non-Japanese, 400 mg, without weight as covariate

SMILES: COc1ncc(C)c(-c2ccc3c(c2)[nH]c(=O)c2cnn([C@H]4CCOC4)c23)c1C [Compound A, (S)-7-(2-methoxy-3,5-dimethylpyridin-4-yl)-1-(tetrahydrofuran-3-yl)-1H-pyrazolo[4,3-c]quin olin-4(5H)-one]
- geometric LS mean Cmax higher in Japanese than non-Japanese (25 mg, with weight as a covariate): 35.6%
- geometric LS mean AUC(0-inf) higher in elderly than in younger healthy adult subjects (100 mg): approximately 41.5%
- geometric LS mean Cmax higher in elderly than in younger healthy adult subjects (100 mg): approximately 45.5%
- increase in the geometric LS mean Cmax, fed vs fasted (100 mg after high fat and high calorie meal): 44.4%
- increase in the geometric LS mean AUC(0-inf), fed vs fasted [1]: 19.2%
- increase in the geometric LS mean Cmax, fed vs fasted [1]: 44.400
- geometric LS mean Cmax higher in Japanese than non-Japanese (100 mg, with weight as a covariate): 30.0%
- geometric LS mean AUC(0-inf) higher in Japanese than non-Japanese [2]: 27.9%
- geometric LS mean Cmax higher in Japanese than non-Japanese [2]: 40.4%
- geometric LS mean Cmax higher in Japanese than non-Japanese across the 3 doses (25, 100, 400 mg): 35.2%
- AUC(0-inf) Geometric LS Mean Ratio (90% CI) [3]: 1.415 (1.168, 1.715)
- Cmax Geometric LS Mean Ratio (90% CI) [3]: 1.455 (1.198, 1.766)
- AUC(0-inf) Geometric LS Mean Ratio (90% CI) (Fed:Fasted, 100 mg, Part B): 1.192 (1.003, 1.418)
- AUC(0-t) Geometric LS Mean Ratio (90% CI) (Fed:Fasted, 100 mg, Part B): 1.186 (0.992, 1.418)
- Cmax Geometric LS Mean Ratio (90% CI) (Fed:Fasted, 100 mg, Part B): 1.444 (1.210, 1.723)
- AUC(O-inf) Geometric LS Mean Ratio (90% CI) [4]: 1.035 (0.819, 1.308)
- Cmax Geometric LS Mean Ratio (90% CI) [4]: 1.356 (1.082, 1.699)
- AUC(O-inf) Geometric LS Mean Ratio (90% CI) [5]: 1.057 (0.845, 1.323)
- Cmax Geometric LS Mean Ratio (90% CI) [5]: 1.394 (1.122, 1.732)
- AUC(O-inf) Geometric LS Mean Ratio (90% CI) [6]: 0.935 (0.767, 1.140)
- Cmax Geometric LS Mean Ratio (90% CI) [6]: 1.300 (1.074, 1.573)
- AUC(O-inf) Geometric LS Mean Ratio (90% CI) [7]: 0.944 (0.778, 1.147)
- Cmax Geometric LS Mean Ratio (90% CI) [7]: 1.317 (1.091, 1.589)
- AUC(O-inf) Geometric LS Mean Ratio (90% CI) [8]: 1.279 (1.035, 1.580)
- Cmax Geometric LS Mean Ratio (90% CI) [8]: 1.404 (1.145, 1.721)
- AUC(O-inf) Geometric LS Mean Ratio (90% CI) [9]: 1.300 (1.059, 1.595)
- Cmax Geometric LS Mean Ratio (90% CI) [9]: 1.433 (1.176, 1.747)
- AUC (human, plasma, oral, 25 mg, Japanese, 25 mg, with weight as covariate, read-out: AUC(O-inf) Geometric LS Means Test): 4500 ng·h/mL
- Cmax (human, plasma, oral, 25 mg, Japanese, 25 mg, with weight as covariate, read-out: Cmax Geometric LS Means Test): 207 ng/mL
- AUC (human, plasma, oral, 25 mg, Japanese, 25 mg, without weight as covariate, read-out: AUC(O-inf) Geometric LS Means Test): 4580 ng·h/mL
- Cmax (human, plasma, oral, 25 mg, Japanese, 25 mg, without weight as covariate, read-out: Cmax Geometric LS Means Test): 212 ng/mL
- AUC (human, plasma, oral, 25 mg, non-Japanese, 25 mg, with weight as covariate, read-out: AUC(O-inf) Geometric LS Means Reference): 4350 ng·h/mL
- Cmax (human, plasma, oral, 25 mg, non-Japanese, 25 mg, with weight as covariate, read-out: Cmax Geometric LS Means Reference): 152 ng/mL
- AUC (human, plasma, oral, 25 mg, non-Japanese, 25 mg, without weight as covariate, read-out: AUC(O-inf) Geometric LS Means Reference): 4340 ng·h/mL
- Cmax (human, plasma, oral, 25 mg, non-Japanese, 25 mg, without weight as covariate, read-out: Cmax Geometric LS Means Reference): 152 ng/mL
- AUC(0-inf) (human, plasma, oral, 100 mg, Fasted, 100 mg, Part B, read-out: AUC(0-inf) Geometric LS Means Reference): 14500 ng·h/mL
- AUC(0-t) (human, plasma, oral, 100 mg, Fasted, 100 mg, Part B, read-out: AUC(0-t) Geometric LS Means Reference): 14400 ng·h/mL
- Cmax (human, plasma, oral, 100 mg, Fasted, 100 mg, Part B, read-out: Cmax Geometric LS Means Reference): 371 ng/mL
- AUC(0-inf) (human, plasma, oral, 100 mg, Fed, 100 mg, Part B, read-out: AUC(0-inf) Geometric LS Means Test): 17300 ng·h/mL
- AUC(0-t) (human, plasma, oral, 100 mg, Fed, 100 mg, Part B, read-out: AUC(0-t) Geometric LS Means Test): 17100 ng·h/mL
- Cmax (human, plasma, oral, 100 mg, Fed, 100 mg, Part B, read-out: Cmax Geometric LS Means Test): 536 ng/mL
- AUC (human, plasma, oral, 100 mg, Japanese, 100 mg, with weight as covariate, read-out: AUC(O-inf) Geometric LS Means Test): 14200 ng·h/mL
- Cmax (human, plasma, oral, 100 mg, Japanese, 100 mg, with weight as covariate, read-out: Cmax Geometric LS Means Test): 491 ng/mL
- AUC (human, plasma, oral, 100 mg, Japanese, 100 mg, without weight as covariate, read-out: AUC(O-inf) Geometric LS Means Test): 14200 ng·h/mL
- Cmax (human, plasma, oral, 100 mg, Japanese, 100 mg, without weight as covariate, read-out: Cmax Geometric LS Means Test): 492 ng/mL
- AUC (human, plasma, oral, 100 mg, non-Japanese, 100 mg, with weight as covariate, read-out: AUC(O-inf) Geometric LS Means Reference): 15200 ng·h/mL
- Cmax (human, plasma, oral, 100 mg, non-Japanese, 100 mg, with weight as covariate, read-out: Cmax Geometric LS Means Reference): 378 ng/mL
- AUC (human, plasma, oral, 100 mg, non-Japanese, 100 mg, without weight as covariate, read-out: AUC(O-inf) Geometric LS Means Reference): 15000 ng·h/mL
- Cmax (human, plasma, oral, 100 mg, non-Japanese, 100 mg, without weight as covariate, read-out: Cmax Geometric LS Means Reference): 373 ng/mL
- half-life (human, plasma, oral, 100 mg, read-out: mean terminal half-life longer in elderly than in younger healthy adult subjects (converted)): ~10 h
- AUC (human, plasma, oral, 400 mg, Japanese, 400 mg, with weight as covariate, read-out: AUC(O-inf) Geometric LS Means Test): 46000 ng·h/mL
- Cmax (human, plasma, oral, 400 mg, Japanese, 400 mg, with weight as covariate, read-out: Cmax Geometric LS Means Test): 1170 ng/mL
- AUC (human, plasma, oral, 400 mg, Japanese, 400 mg, without weight as covariate, read-out: AUC(O-inf) Geometric LS Means Test): 46500 ng·h/mL
- Cmax (human, plasma, oral, 400 mg, Japanese, 400 mg, without weight as covariate, read-out: Cmax Geometric LS Means Test): 1180 ng/mL
- AUC (human, plasma, oral, 400 mg, non-Japanese, 400 mg, with weight as covariate, read-out: AUC(O-inf) Geometric LS Means Reference): 36000 ng·h/mL
